Data set [1] has as its target T1, MLK1/MAP3K9 (Homo sapiens, UniProt P80192).
T1 construct: purchased Reaction Biology Corp
In words: Radiolabeled ATP kinase assay (Reaction Biology Corp.), MLK1. In kind it is biochemical. As to conditions: [Cmpd] 0.1 μM, 10 μM ATP. How it is done: Meanwhile, the same analogs were analyzed in a radiolabeled ATP assay (10 μM ATP; Reaction Biology Corp.) to compare the extent to which they could inhibit the activity of HGK, MLK1, or MLK3 in a cell-free environment (Table S3 and S4).

The target in data set [2] is T2, panel of 60 human kinases (Homo sapiens, UniProt O94806).
T2 construct: purchased Reaction Biology Corp
T2 sequence (O94806 1-890): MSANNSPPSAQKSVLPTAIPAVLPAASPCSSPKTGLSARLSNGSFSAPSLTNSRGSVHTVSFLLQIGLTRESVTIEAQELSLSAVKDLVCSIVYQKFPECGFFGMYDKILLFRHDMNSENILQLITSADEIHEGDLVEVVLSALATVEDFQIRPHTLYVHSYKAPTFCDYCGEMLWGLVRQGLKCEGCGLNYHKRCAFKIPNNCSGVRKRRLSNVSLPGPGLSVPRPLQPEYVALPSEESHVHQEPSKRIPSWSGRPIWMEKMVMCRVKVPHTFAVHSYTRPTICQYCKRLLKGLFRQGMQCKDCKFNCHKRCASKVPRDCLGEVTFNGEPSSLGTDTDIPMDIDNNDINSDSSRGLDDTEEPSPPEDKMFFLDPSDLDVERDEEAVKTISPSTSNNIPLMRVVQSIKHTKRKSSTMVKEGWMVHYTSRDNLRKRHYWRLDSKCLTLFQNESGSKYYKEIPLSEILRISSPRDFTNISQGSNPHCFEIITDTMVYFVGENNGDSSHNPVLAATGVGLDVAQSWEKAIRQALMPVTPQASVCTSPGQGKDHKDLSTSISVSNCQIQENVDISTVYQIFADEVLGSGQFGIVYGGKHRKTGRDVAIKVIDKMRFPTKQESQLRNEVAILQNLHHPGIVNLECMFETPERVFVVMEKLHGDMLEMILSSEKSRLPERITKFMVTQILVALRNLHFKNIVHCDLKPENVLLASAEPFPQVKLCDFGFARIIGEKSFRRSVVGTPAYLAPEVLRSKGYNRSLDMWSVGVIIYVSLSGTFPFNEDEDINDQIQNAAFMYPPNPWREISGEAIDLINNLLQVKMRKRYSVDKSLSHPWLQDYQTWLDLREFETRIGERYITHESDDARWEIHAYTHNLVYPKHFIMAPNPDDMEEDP
Briefly: Radiolabeled ATP kinase assay, panel of 60 kinases (Table S5). In kind it is biochemical. As to conditions: PKCnu/PRKD3; 0.1 μM; 10 μM ATP; read-out: % Enzyme Activity (relative to DSMO controls). In short, it runs like this:
(§1)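 Compounds at two concentrations, 0.1 μM and 0.5 μM, were screened for inhibition of 60 kinases in cell-free assays read out by radiolabeled ATP.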

Data set [3] deals with T3, panel of 60 human kinases (Homo sapiens, UniProt P35916).
T3 construct: purchased Reaction Biology Corp
The description is as above. In kind it is biochemical. As to conditions: FLT4/VEGFR3; 0.1 μM; 10 μM ATP; read-out: % Enzyme Activity (relative to DSMO controls). The essentials:
as §1

The target in data set [4] is T4, panel of 60 human kinases (Homo sapiens, UniProt Q08345).
T4 construct: purchased Reaction Biology Corp
The data set is described as above. The class given is biochemical. Conditions: DDR1; 0.1 μM; 10 μM ATP; read-out: % Enzyme Activity (relative to DSMO controls). In short, it runs like this: as §1

Data set [5] concerns the target T5, panel of 60 human kinases (Homo sapiens, UniProt Q12851).
T5 construct: purchased Reaction Biology Corp
T5 sequence (Q12851 1-820): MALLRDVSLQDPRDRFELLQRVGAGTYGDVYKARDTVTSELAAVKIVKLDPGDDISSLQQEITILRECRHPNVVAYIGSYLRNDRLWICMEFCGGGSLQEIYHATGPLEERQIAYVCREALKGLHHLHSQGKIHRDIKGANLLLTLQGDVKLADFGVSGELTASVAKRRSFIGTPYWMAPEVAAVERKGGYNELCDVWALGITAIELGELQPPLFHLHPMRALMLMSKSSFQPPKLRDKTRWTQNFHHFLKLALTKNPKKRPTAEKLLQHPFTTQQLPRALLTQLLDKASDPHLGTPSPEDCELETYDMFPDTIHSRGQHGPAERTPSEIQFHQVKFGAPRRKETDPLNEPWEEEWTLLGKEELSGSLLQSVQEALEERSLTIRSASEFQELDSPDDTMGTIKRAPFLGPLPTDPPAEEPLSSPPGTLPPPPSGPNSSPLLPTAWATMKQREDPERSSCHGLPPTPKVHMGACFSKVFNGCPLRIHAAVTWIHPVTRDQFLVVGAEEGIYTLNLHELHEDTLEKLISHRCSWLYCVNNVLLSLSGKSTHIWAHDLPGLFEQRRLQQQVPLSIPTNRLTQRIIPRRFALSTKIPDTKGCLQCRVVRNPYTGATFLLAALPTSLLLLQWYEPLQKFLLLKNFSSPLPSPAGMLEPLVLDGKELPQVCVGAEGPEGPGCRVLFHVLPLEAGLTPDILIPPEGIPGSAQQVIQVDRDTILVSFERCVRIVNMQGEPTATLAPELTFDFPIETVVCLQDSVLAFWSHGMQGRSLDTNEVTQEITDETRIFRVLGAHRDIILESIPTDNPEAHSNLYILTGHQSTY
The data set is described as above. The class given is biochemical. Conditions: GCK/MAP4K1; 0.1 μM; 10 μM ATP; read-out: % Enzyme Activity (relative to DSMO controls). In short, it runs like this: as §1

Data set [6] addresses T6, panel of 60 human kinases (Homo sapiens, UniProt Q16539).
T6 construct: purchased Reaction Biology Corp
The data set is described as above. Conditions: P38a/MAPK14; 0.1 μM; 10 μM ATP; read-out: % Enzyme Activity (relative to DSMO controls). The class given is biochemical. The essentials:
as §1

Data set [7] is described as follows: in vitro. As to conditions: CD-1, mouse, liver microsomes, pH 7.4. For orientation: Microsomes from liver hold many membrane-bound enzymes, among them those of drug oxidation.
Protocol: To test the metabolic stability of the analogs, an in vitro microsomal stability assay was carried out.
The microsomal stability assay was performed in 96-well format (Perkin-Elmer, StorPlate-96U, PP, 96 well, round bottom). […] A stock solution of the compound to be analyzed (0.8 μL. 5 mM) or ethoxycoumarin (positive control, 0.8 μL, 5 mM) was added and the mixture was warmed to 37° C. for 5 minutes. The mouse microsomes (CD-1, 5 μL, thawed in a 37° C. water bath before use, 20 mg/mL, Life Technologies) were added. At selected time points (0, 15, 30, 45, 60 and 120 minutes) aliquots (15 μL) were withdrawn from the plate and quenched upon addition to cold acetonitrile (60 μL), containing an internal standard (5 μM) in a 96-well plate. The samples were centrifuged at 13,000 rpm for 10 minutes at 4° C. The supernatant (40 μL) was withdrawn and transferred to a sample vial with insert. The samples were analyzed by LC-MS.
LC-MS analysis was performed on a platform comprising a Thermo Scientific Dionex Ultimate 3000 and a Bruker amaZon SL equipped with an electrospray ionization source controlled by Bruker Hystar 3.2. […] The flow rate was maintained at 400 μL/min. The initial flow conditions were 60% solvent A (water containing 0.1% acetic acid) and 40% solvent B (methanol containing 0.1% acetic acid).
Aliquots were taken over the course of two hours and analyzed by HPLG-MS using an internal standard to assess compound stability over time.
Data set [8] can be described thus: Plasma and brain concentration after IV injection (FIG. 13B). In kind it is in vivo, mouse. Conditions: 10 mg/kg. How it is done: Drug concentrations were analyzed by LC-MS.
Setting [9] is: read-out: % Enzyme Activity Remaining (relative to DMSO controls), MLK1/MAP3K9, Data 1.
The mark [10] stands for this setting: read-out: % Enzyme Activity Remaining (relative to DMSO controls), MLK1/MAP3K9, Data 2.

This is an account of results in patent US12227500B2, “Substituted pyrrolo[2,3-b]pyridines for suppressing toxic endoplasmic reticulum stress” (THE TRUSTEES OF COLUMBIA UNIVERSITY IN THE CITY OF NEW YORK, priority 2018, dated 2025).

Where two headings read alike, the source gives them in different places.

T1 sequence (P80192 whole entry): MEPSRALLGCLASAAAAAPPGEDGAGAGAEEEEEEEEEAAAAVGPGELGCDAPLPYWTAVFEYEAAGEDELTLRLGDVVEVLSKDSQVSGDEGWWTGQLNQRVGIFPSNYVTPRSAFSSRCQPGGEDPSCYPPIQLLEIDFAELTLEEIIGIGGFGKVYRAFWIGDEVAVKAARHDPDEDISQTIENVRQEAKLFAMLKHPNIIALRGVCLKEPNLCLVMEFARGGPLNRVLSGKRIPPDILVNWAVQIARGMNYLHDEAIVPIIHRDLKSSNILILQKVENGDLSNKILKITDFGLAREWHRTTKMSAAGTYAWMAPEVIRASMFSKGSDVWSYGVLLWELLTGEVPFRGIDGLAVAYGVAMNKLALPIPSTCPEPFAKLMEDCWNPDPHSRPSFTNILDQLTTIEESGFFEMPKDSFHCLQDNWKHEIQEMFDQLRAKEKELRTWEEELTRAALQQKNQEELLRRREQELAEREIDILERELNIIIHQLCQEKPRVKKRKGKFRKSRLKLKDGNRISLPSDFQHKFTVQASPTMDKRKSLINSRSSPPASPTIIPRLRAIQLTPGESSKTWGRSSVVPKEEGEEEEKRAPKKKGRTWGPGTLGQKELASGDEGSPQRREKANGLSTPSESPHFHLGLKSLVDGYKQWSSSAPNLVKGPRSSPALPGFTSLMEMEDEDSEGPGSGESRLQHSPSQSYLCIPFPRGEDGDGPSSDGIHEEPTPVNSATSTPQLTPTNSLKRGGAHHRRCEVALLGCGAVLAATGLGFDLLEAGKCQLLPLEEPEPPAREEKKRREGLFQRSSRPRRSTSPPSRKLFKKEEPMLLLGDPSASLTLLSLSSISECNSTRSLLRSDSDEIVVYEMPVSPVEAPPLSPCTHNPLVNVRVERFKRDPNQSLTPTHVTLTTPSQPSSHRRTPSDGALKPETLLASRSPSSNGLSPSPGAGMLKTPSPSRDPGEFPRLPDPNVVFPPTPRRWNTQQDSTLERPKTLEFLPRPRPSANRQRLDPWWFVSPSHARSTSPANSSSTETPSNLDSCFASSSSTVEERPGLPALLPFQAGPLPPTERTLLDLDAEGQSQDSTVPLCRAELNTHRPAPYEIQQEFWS
T4 sequence (Q08345 19-913): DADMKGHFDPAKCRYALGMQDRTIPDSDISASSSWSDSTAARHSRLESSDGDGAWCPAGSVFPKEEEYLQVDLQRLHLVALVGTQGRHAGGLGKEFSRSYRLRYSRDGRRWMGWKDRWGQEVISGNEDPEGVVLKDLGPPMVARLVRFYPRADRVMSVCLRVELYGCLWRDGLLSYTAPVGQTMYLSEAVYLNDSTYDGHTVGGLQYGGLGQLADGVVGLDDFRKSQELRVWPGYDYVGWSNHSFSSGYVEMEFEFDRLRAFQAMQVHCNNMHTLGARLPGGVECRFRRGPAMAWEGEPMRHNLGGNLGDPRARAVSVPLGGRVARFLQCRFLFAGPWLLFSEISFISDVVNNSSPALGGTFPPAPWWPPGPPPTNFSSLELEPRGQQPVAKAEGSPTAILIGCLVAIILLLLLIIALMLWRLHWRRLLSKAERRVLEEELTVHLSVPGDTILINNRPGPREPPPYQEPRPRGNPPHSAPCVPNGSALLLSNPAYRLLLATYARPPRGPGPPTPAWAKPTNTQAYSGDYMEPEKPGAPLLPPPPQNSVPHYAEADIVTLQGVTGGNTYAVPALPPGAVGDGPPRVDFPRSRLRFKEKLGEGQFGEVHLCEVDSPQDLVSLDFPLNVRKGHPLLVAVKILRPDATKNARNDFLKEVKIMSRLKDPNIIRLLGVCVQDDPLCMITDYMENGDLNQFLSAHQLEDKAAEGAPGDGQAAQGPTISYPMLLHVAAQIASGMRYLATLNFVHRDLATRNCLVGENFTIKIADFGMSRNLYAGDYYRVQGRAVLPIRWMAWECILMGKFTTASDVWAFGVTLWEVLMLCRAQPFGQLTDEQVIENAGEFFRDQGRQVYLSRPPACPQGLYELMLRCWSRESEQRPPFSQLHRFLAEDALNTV
T6 sequence (Q16539 whole entry): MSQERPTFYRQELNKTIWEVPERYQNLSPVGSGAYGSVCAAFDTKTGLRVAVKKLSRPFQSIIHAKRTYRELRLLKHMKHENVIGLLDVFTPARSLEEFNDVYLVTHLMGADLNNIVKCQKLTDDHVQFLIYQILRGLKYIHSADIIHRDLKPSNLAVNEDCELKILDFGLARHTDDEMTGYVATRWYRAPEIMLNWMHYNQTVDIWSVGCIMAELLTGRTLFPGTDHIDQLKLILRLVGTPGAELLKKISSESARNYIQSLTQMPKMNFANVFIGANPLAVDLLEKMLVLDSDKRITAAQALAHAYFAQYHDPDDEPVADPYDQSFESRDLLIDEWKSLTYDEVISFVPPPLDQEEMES
T3 sequence (P35916 25-1363): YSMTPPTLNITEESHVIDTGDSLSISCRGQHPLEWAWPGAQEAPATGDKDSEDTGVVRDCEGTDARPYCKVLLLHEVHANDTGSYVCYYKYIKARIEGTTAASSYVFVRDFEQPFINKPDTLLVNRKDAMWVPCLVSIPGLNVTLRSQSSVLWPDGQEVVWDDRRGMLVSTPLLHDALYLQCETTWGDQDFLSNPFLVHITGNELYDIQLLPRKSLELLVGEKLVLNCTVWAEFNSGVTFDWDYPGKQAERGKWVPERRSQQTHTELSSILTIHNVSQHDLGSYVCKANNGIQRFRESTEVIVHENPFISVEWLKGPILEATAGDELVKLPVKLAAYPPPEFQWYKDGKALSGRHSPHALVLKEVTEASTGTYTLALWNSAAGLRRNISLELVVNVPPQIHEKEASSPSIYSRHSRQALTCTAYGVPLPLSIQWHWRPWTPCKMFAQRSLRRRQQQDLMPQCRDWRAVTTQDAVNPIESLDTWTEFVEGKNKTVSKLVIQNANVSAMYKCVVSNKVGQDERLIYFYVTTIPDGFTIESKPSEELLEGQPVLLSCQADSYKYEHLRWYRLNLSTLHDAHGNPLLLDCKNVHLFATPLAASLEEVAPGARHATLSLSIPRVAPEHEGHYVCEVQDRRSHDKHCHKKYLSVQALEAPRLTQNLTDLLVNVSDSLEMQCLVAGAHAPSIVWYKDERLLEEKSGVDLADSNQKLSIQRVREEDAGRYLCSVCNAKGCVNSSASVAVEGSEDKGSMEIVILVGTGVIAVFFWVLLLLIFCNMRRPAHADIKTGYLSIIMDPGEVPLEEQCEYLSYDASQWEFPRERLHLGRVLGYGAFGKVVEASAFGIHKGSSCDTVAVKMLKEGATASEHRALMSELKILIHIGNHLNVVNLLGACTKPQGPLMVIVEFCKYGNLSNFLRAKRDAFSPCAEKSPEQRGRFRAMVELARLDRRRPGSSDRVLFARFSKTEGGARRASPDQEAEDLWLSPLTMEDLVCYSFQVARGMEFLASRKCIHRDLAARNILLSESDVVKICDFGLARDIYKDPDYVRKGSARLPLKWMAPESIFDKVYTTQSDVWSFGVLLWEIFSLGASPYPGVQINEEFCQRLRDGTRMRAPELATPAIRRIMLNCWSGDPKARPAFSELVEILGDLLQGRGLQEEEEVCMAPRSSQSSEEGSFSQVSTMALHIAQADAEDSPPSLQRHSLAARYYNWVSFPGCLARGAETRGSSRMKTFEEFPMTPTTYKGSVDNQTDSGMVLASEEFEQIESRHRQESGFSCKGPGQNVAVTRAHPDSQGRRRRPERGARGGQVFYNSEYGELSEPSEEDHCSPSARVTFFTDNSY

What is called half-life is how long it takes for the measured level to halve. A lower half-life goes with fast loss. Consider `CN1CCN(Cc2ccc(-c3cnc4[nH]cc(-c5cccc(Cl)c5)c4c3)cc2)CC1` [Compound 7ad, 3-(3-Chlorophenyl)-5-(4-((4-methylpiperazin-1-yl)methyl)phenyl)-1H-pyrrolo[2,3-b]pyridine], for which the remaining activity at 0.1 µM worked out at 61.9% in data set [1] (setting [9]); 63.6% in data set [1] (setting [10]); 17.5% in data set [2]; 80.5% in data set [3]; 82% in data set [4]; 8.09% in data set [5]. Further, the remaining activity at 0.1 µM in data set [6] worked out at 105%. This compound had a half-life at 20 μM in data set [7] above 30 min.

For `CN1CCN(Cc2ccc(-c3cnc4[nH]cc(-c5ccc6c(c5)OCCO6)c4c3)cc2)CC1` [Compound 7d, 3-(2,3-Dihydrobenzo[b][1,4]dioxin-6-yl)-5-(4-((4-methylpiperazin-1-yl)methyl)phenyl)-1H-pyrrolo[2,3-b]pyridine], the remaining activity at 0.1 µM in data set [1] (setting [9]) worked out at 25.6%; in data set [1] (setting [10]), 23.6%; in data set [2], 6.42%; in data set [3] it was 39%; in data set [4] it was 57.4%; in data set [5], 13.1%. Moreover, the remaining activity at 0.1 µM in data set [6] was determined as 102%.

`Cc1nn(C)c(C)c1-c1c[nH]c2ncc(-c3ccc(CN4CCN(C)CC4)cc3)cc12` [Compound 7ai, 5-(4-((4-Methylpiperazin-1-yl)methyl)phenyl)-3-(1,3,5-trimethyl-1H-pyrazol-4-yl)-1H-pyrrolo[2,3-b]pyridine]: the remaining activity at 0.1 µM in data set [1] (setting [9]) is 93.3%; in data set [1] (setting [10]) it was 90.5%; in data set [2] it was 19.2%; in data set [3] it was 60.3%; in data set [4], 76.5%; in data set [5], 53.8%. Also, the remaining activity at 0.1 µM in data set [6] worked out at 98.2%.

In the case of `OCCN1CCN(Cc2ccc(-c3cnc4[nH]cc(-c5cccc(Cl)c5)c4c3)cc2)CC1` [Compound 12k, 2-(4-(4-(3-(3-Chlorophenyl)-1H-pyrrolo[2,3-b]pyridin-5-yl)benzyl)piperazin-1-yl)ethan-1-ol], in data set [8], the “level in plasma and brain 1 h after injection (LC-MS)” value was “still detectable”. This compound also showed a half-life at 20 μM in data set [7] above 120 min.

For the compound `CN1CCN(Cc2ccc(-c3cnc4[nH]cc(-c5ccc6[nH]ccc6c5)c4c3)cc2)CC1` [Compound 1, 3-(1H-Indol-5-yl)-5-(4-((4-methylpiperazin-1-yl)methyl)phenyl)-1H-pyrrolo[2,3-b]pyridine, reference compound], the remaining activity at 0.1 µM worked out at 16.2% in data set [1] (setting [9]); 14.2% in data set [1] (setting [10]); 16.1% in data set [2]; 34.5% in data set [3]; 47.5% in data set [4]; 27.5% in data set [5]. Also, the remaining activity at 0.1 µM in data set [6] was 108%. Besides, the “level in plasma and brain 1 h after injection (LC-MS)” value in data set [8] was “below the limits of detection”. The compound also yielded a half-life at 20 μM in data set [7] of 7.8 min.

`CN1CCN(Cc2ccc(-c3cnc4[nH]cc(-c5cnn(Cc6ccccc6)c5)c4c3)cc2)CC1` [Compound 7ah, 3-(1-Benzyl-1H-pyrazol-4-yl)-5-(4-((4-methylpiperazin-1-yl)methyl)phenyl)-1H-pyrrolo[2,3-b]pyridine]: the remaining activity at 0.1 µM in data set [1] (setting [9]) was 51.1%; in data set [1] (setting [10]) it was 48.2%; in data set [2] it was 7.09%; in data set [3], 34%; in data set [4], 38.3%; in data set [5], 10.1%. The remaining activity at 0.1 µM in data set [6] was 109%.

Consider `CN1CCN(Cc2ccc(-c3cnc4[nH]cc(-c5ccncc5)c4c3)cc2)CC1` [Compound 7n, 5-(4-((4-Methylpiperazin-1-yl)methyl)phenyl)-3-(pyridin-4-yl)-1H-pyrrolo[2,3-b]pyridine], for which the remaining activity at 0.1 µM was determined as 88.9% in data set [1] (setting [9]); 88.7% in data set [1] (setting [10]); 42.3% in data set [2]; 66% in data set [3]; 79.7% in data set [4]; 59.6% in data set [5]. Moreover, in data set [6], the remaining activity at 0.1 µM was determined as 101%.

With `CN1CCN(Cc2ccc(-c3cnc4[nH]cc(-c5ccoc5)c4c3)cc2)CC1` [Compound 7w, 3-(Furan-3-yl)-5-(4-((4-methylpiperazin-1-yl)methyl)phenyl)-1H-pyrrolo[2,3-b]pyridine], the remaining activity at 0.1 µM in data set [1] (setting [9]) stood at 76%; in data set [1] (setting [10]), 79.3%; in data set [2], 32.8%; in data set [3], 64.6%; in data set [4] it was 75.2%; in data set [5], 33.6%. Also, the remaining activity at 0.1 µM in data set [6] turned out to be 110%.

In the case of `COc1ccccc1-c1c[nH]c2ncc(-c3ccc(CN4CCN(C)CC4)cc3)cc12` [Compound 7at, 3-(2-Methoxyphenyl)-5-(4-((4-methylpiperazin-1-yl)methyl)phenyl)-1H-pyrrolo[2,3-b]pyridine], the remaining activity at 0.1 µM was found to be 31.3% in data set [1] (setting [9]); 30.6% in data set [1] (setting [10]); 50.2% in data set [2]; 79.8% in data set [3]; 68.1% in data set [4]; 12.3% in data set [5]. Further, in data set [6], the remaining activity at 0.1 µM stood at 96.2%. The same compound came in with a half-life at 20 μM in data set [7] above 30 min.

On to `CN1CCN(Cc2ccc(-c3cnc4[nH]cc(-c5ccccc5Cl)c4c3)cc2)CC1` [Compound 7as, 3-(2-Chlorophenyl)-5-(4-((4-methylpiperazin-1-yl)methyl)phenyl)-1H-pyrrolo[2,3-b]pyridine], for which the remaining activity at 0.1 µM in data set [1] (setting [9]) worked out at 72.7%; in data set [1] (setting [10]) it was 73.3%; in data set [2] it was 18.8%; in data set [3], 23.2%; in data set [4], 35.6%; in data set [5], 8.85%. Also, the remaining activity at 0.1 µM in data set [6] was determined as 113%.
